Results on 21 molecules are retold here after patent US20080027042A1, “Novel Aminopyridine Derivatives Having Aurora a Selective Inhibitory Action” (priority 2004, published 2008).

One assay has as its target T1, Aurora B (Homo sapiens, UniProt Q96GD4).
T1 construct: histidine tag (N); made in house; host or cells: Escherichia coli BL21-CodonPlus(DE3)-RIL
Kind of assay: Aurora B inhibitory action (33P-ATP kinase assay, Kemptide substrate). The assay is classed as biochemical. To be noted: 100 μM ATP, 30° C., 20 minutes. The source says:
Aurora B Inhibitory Action
(1) Purification of Aurora B
cDNA of Aurora B having histidine tag fused at the amino terminal was integrated into an expression vector, which was then highly expressed in Escherichia coli BL21-CodonPlus(DE3)-RIL cells. The Escherichia coli cells were recovered and solubilized, and then the histidine-tagged […] protein was adsorbed onto a nickel chelate column and eluted from the column with imidazole. The active fraction was desalted with a desalting column to give a pure enzyme.
(2) Measurement of Activity of Aurora B
For measurement of the activity of Aurora B, the substrate used was Kemptide (Lys-Arg-Arg-Ala-Ser-Lys-Gly) (SEQ.ED.NO.: 1), a synthetic peptide purchased from Sigma-Aldrich, Inc. [Certificate of analysis (Upstate, Inc.)].
Reaction was conducted by a partial modification of the method of activity measurement for Aurora A. The amount of the reaction liquid was 21.1 μL, and the composition of the reaction buffer (R2 buffer) was 50 mM Tris-hydrochloride buffer (pH 7.4)/15 mM magnesium acetate/0.2 mM ethylenediamine-N,N,N′,N′-tetraacetate (EDTA). To this, purified Aurora B, 100 μM of a substrate peptide, 100 μM of unlabeled adenosine triphosphate (ATP) and 1 μCi of [γ-^33P] labeled ATP (2,500 Ci/mmole or more) were added, and the mixture was reacted at 30° C. for 20 minutes. Then, 10 μL of 350 mM phosphate buffer was added to the reaction system to stop the reaction. The substrate peptide was adsorbed on a P81 paper filter 96-well plate and then washed with 130 mM phosphate buffer for several times. The radiation activity of the peptide was measured with a liquid scintillation counter. The [γ-^33P] labeled ATP was purchased from Amersham Biosciences Co., Ltd.
(§1) The compound to be tested was added to the reaction system such that a dilution series of the compound in dimethylsulfoxide was first prepared, and 1.1 μL of this solution was added. A control was provided by adding 1.1 μL of DMSO to the reaction system.

In another assay the target is T2, Aurora A (Homo sapiens, UniProt O14965).
T2 construct: histidine tag (N); made in house; host or cells: Escherichia coli BL21-CodonPlus(DE3)-RIL
T2 sequence (O14965 1-403): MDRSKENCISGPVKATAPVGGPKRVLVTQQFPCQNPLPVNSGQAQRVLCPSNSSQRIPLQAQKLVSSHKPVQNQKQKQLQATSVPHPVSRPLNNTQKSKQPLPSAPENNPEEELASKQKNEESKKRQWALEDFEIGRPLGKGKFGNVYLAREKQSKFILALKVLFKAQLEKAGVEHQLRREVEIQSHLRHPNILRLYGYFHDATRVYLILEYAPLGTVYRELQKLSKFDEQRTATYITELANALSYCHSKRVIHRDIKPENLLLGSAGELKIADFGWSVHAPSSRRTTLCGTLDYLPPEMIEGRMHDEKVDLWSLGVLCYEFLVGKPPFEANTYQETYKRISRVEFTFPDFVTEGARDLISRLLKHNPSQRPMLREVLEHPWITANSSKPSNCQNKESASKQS
Kind of assay: Aurora A inhibitory action (33P-ATP kinase assay, Kemptide substrate). The assay is classed as biochemical. To be noted: 20 μM ATP, 30° C., 20 minutes.
Excerpt: Aurora A Inhibitory Action
(1) Purification of Aurora A
cDNA of Aurora A having histidine tag fused at the amino terminal was integrated into an expression vector, which was then highly expressed in Escherichia coli BL2 1-CodonPlus(DE3)-RIL cells. The Escherichia coli cells were recovered and solubilized, and then the histidine-tagged Aurora A protein was adsorbed onto a nickel chelate column and eluted from the column with imidazole. The active fraction was desalted with a desalting column to give a pure enzyme.
(2) Measurement of Activity of Aurora A
For measurement of the activity of Aurora A, the substrate used was Kemptide (Lys-Arg-Arg-Ala-Ser-Lys-Gly) (SEQ.ID.NO.: 1), a synthetic peptide purchased from Sigma-Aldrich, Inc. [Certificate of analysis (Upstate, Inc.)].
Reaction was conducted by a partial modification of a method by Upstate, Inc. [Kinase Profiler™ Assay Protocols]. The amount of the reaction liquid was 21.1 μL, and the composition of the reaction buffer (R2 buffer) was 50 mM Tris-hydrochloride buffer (pH 7.4)/15 mM magnesium acetate/0.2 mM ethylenediamine-N,N,N′,N′-tetraacetate (EDTA). To this, purified Aurora A, 100 μM of a substrate peptide, 20 μM of unlabeled adenosine triphosphate (ATP) and 0.5 μCi of [γ-^33P] labeled ATP (2,500 Ci/mmole or more) were added, and the mixture was reacted at 30° C. for 20 minutes. Then, 10 μL of 350 mM phosphate buffer was added to the reaction system to stop the reaction. The substrate peptide was adsorbed on a P81 paper filter 96-well plate and then washed with 130 mM phosphate buffer for several times. The radiation activity of the peptide was measured with a liquid scintillation counter. The [γ-^33P] labeled ATP was purchased from Amersham Biosciences Co., Ltd.
as §1

Structures can show the parent of a compound that is named as a salt.

T1 sequence (Q96GD4 whole entry): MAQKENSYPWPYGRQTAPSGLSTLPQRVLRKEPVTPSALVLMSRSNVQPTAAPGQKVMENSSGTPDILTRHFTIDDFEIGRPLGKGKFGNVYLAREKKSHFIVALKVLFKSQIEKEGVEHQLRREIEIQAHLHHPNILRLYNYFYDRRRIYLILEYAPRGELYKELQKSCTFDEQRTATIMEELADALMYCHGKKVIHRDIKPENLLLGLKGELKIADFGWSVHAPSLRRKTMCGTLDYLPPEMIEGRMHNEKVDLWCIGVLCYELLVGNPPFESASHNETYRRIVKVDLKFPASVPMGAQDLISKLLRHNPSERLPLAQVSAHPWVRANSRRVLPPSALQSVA

As to `O=C(c1cccc(C(F)F)c1F)N1CCN(Cc2cccc(Nc3ncns3)n2)CC1` [Example 41, 6-((4-(2-fluoro-3-(difluoromethyl)benzoyl)piperazin-1-yl)methyl)-N-1,2,4-thiadiazol-5-ylpyridin-2-amine trifluoroacetate], the IC50 – broadly, the midpoint of a concentration-inhibition curve – on Aurora B was 5000 nM; at Aurora A, 2.9 nM.
The like results for `Cc1cnc(Nc2cccc(CN3CCN(C(=O)c4cccc(Cl)c4F)CC3)n2)s1` [Example 42, 6-((4-(3-chloro-2-fluorobenzoyl)piperazin-1-yl)methyl)-N-(5-methyl-thiazol-2-yl)pyridin-2-amine trifluoroacetate] were, in that order, 530 nM and 1 nM.
Consider `N#Cc1cnc(Nc2cccc(CN3CCN(C(=O)c4cccc(Cl)c4F)CC3)n2)s1` [Example 43], for which the IC50 at Aurora B came out at 460 nM; against Aurora A it was 1.1 nM.
As to `O=C(c1cccc(Cl)c1Cl)N1CCN(Cc2cncc(Nc3cc[nH]n3)n2)CC1` [Example 45, 6-((4-(2,3-dichlorobenzoyl)piperazin-1-yl)methyl)-N-1H-pyrazol-3-ylpyrazin-2-amine], the results for the IC50 on Aurora B and on Aurora A were 4800 nM and 2.5 nM, respectively.
Consider `O=C(c1cccc(C(F)(F)F)c1F)N1C[C@@H]2C[C@H]1CN2Cc1cncc(Nc2cc[nH]n2)n1` [Example 47, 6-(((lS,4S)-5-(2-fluoro-3-(trifluoromethyl)benzoyl)-2,5-diazabicyclo[2.2.1]hept-2-yl)methyl)-N-1H-pyrazol-3-ylpyrazin-2-amine], for which the IC50 on Aurora B amounted to 2200 nM; on Aurora A it was 5.5 nM.
Turning to `O=C(c1cccc(C(F)(F)F)c1F)N1C[C@H]2C[C@@H]1CN2Cc1cncc(Nc2cc[nH]n2)n1` [Example 48, 6-(((1R,4R)-5-(2-fluoro-3-(trifluoromethyl)benzoyl)-2,5-diazabicyclo[2.2.1]hept-2-yl)methyl)-N-1H-pyrazol-3-ylpyrazin-2-amine], the IC50 against Aurora B amounted to 2900 nM; against Aurora A, 2.8 nM.
On the same counts, the results for `O=C(c1cccc(Br)c1F)N1CCN(Cc2cncc(Nc3cc[nH]n3)n2)CC1` [Example 49, 6-((4-(3-bromo-2-fluorobenzoyl)piperazin-1-yl)methyl)-N-1H-pyrazol-3-ylpyrazin-2-amine trifluoroacetate] are 4400 nM and 1.4 nM.
On the same counts, the results for `O=C(c1cccc(C(F)(F)F)c1Cl)N1CCN(Cc2cncc(Nc3cc[nH]n3)n2)CC1` [Example 51, 6-((4-(2-chloro-3-(trifluoromethyl)benzoyl)piperazin-1-yl)methyl)-N-1H-pyrazol-3-ylpyrazin-2-amine trifluoroacetate] are 930 nM and 0.98 nM.
For `O=C(c1cccc(C(F)(F)F)c1F)N1CCN(Cc2cncc(Nc3cc[nH]n3)n2)CC(O)C1` (stereo not drawn) [Example 55, 6-((4-(2-fluoro-3-(trifluoromethyl)benzoyl)-6-hydroxy-1,4-diazepan-1-yl)methyl)-N-1H-pyrazol-3-ylpyrazin-2-arnine], the results for the IC50 on Aurora B and at Aurora A were 7400 nM and 20 nM, respectively.
The like results for `O=C(c1cccc(C(F)(F)F)c1F)N1CCN(Cc2cncc(Nc3ncns3)n2)CC1` [Example 57, 6-((4-(2-fluoro-(3-trifluoromethyl)benzoyl)piperazin-1-yl)methyl)-N-1,2,4-thiadiazol-5-ylpyrazin-2-amine] were, in that order, 28000 nM and 15 nM.
On the same counts, the results for `O=C(c1ccoc1)N1CCN(Cc2cccc(Nc3ncc(Cl)s3)n2)CC1` [Example 61, 6-((4-(3-furoyl)piperazin-1-yl)methyl)-N-(5-chlorothiazol-2-yl)pyridin-2-amine] are 530 nM and 17 nM.
The like results for `O=C(c1cccc(Cl)c1F)N1CCCN(Cc2cccc(Nc3nccs3)n2)CC1` [Example 63, 6-((4-(3-chloro-2-fluorobenzoyl)-1,4-diazepan-1-yl)methyl)-N-thiazol-2-ylpyridin-2-amine] were, in that order, 570 nM and 1.3 nM.
Take `O=C(c1cnccn1)N1CCN(Cc2cccc(Nc3ncc(Cl)s3)n2)CC1` [Example 64, 6-((4-(pyrazin-2-ylcarbonyl)piperazin-1-yl)methyl)-N-(5-chlorothiazol-2-yl)pyridin-2-amine]: the IC50 against Aurora B came to 2500 nM; at Aurora A it was 110 nM.
Turning to `O=C(c1ccsc1)N1CCN(Cc2cccc(Nc3ncc(Cl)s3)n2)CC1` [Example 65, 6-((4-(3-thienylcarbonyl)piperazin-1-yl)methyl)-N-(5-chlorothiazol-2-yl)pyridin-2-amine], the IC50 on Aurora B came out at 160 nM; on Aurora A, 2.4 nM.
Take `O=C(c1nccs1)N1CCN(Cc2cccc(Nc3ncc(Cl)s3)n2)CC1` [Example 67, 6-((4-(thiazol-2-ylcarbonyl)piperazin-1-yl)methyl)-N-(5-chlorothiazol-2-yl)pyridin-2-amine]: the values for the IC50 at Aurora B and on Aurora A were 320 nM and 17 nM, respectively.
On the same counts, the results for `Cn1ccc(C(=O)N2CCN(Cc3cccc(Nc4ncc(Cl)s4)n3)CC2)n1` [Example 69, 6-((4-((1-methyl-1H-pyrazol-3-yl)carbonyl)piperazin-1-yl)methyl)-N-(5-chlorothiazol-2-yl)pyridin-2-amine] are 920 nM and 32 nM.
For the molecule `N#Cc1ccccc1C(=O)N1CCN(Cc2cccc(Nc3ncc(Cl)s3)n2)CC1` [Example 70, 6-((4-(2-cyanobenzoyl)piperazin-1-yl)methyl)-N-(5-chlorothiazol-2-yl)pyridin-2-amine], the concentration for half-maximal inhibition (IC50) on Aurora B turned out to be 96 nM; against Aurora A, 2.4 nM.
The like results for `CC(=O)Nc1cccc(C(=O)N2CCN(Cc3cccc(Nc4ncc(Cl)s4)n3)CC2)c1` [Example 72, 6-((4-(3-(acetylamino)benzoyl)piperazin-1-yl)methyl)-N-(5-chlorothiazol-2-yl)pyridin-2-amine] were, in that order, 170 nM and 27 nM.
On to `CS(=O)(=O)c1cccc(C(=O)N2CCN(Cc3cccc(Nc4ncc(Cl)s4)n3)CC2)c1` [Example 74, 6-((4-(3-(methanesulfonyl)benzoyl)piperazin-1-yl)methyl)-N-(5-chlorothiazol-2-yl)pyridin-2-amine], for which the IC50 was 850 nM on Aurora B and 47 nM on Aurora A.
On the same counts, the results for `O=C(c1cccc(Cl)c1Cl)N1CCN(Cc2cccc(Nc3ncc(Cl)s3)n2)CC1` [Example 76, 6-((4-(2,3-dichlorobenzoyl)piperazin-1-yl)methyl)-N-(5-chlorothiazol-2-yl)pyridin-2-amine] are 47 nM and 0.44 nM.
On to `O=C(c1cccnc1F)N1CCN(Cc2cccc(Nc3ncc(Br)s3)n2)CC1` [Example 78, 6-((4-((2-fluoropyridin-3-yl)carbonyl)piperazin-1-yl)methyl)-N-(5-bromothiazol-2-yl)pyridin-2-amine], for which the IC50 against Aurora B worked out at 240 nM; against Aurora A, 2 nM.
